{"source": "patent US11534493B2", "about": "“Pharmaceutical compositions of roflumilast in aqueous blends of water-miscible, pharmaceutically acceptable solvents” (ARCUTIS, INC., priority 2017, dated 2022)", "key": {"[1]": {"experimental": "(§1) Roflumilast (Batch A14367P from Interquim S.A.), 0.0061 grams, was weighed into a liquid scintillation vial. PG (propylene glycol, Spectrum Chemical lot IEC0004) was added dropwise with mixing to the vial containing roflumilast. After mixing each addition of PG, the tightly capped vial was returned to a water bath set at 25° C.\n2.3200 grams of an equimolar blend of PG (Spectrum Chemical lot IEC0004) and distilled water was prepared and added to a scintillation vial containing 0.0012 grams of roflumilast (Batch A14367P from Interquim S.A.). […] An equimolar blend is 80.7% PG and 19.3% water on a weight/weight percent basis."}, "[2]": {"assay": "aqueous solubility of roflumilast reported in WO95/01338", "format": "physicochemical", "details": "cited 0.53 mg/l (21° C.) value converted to w/w %", "excerpt": "Roflumilast and its synthesis were described in U.S. Pat. No. 5,712,298 (the “'298 patent”), incorporated herein by reference.* It has long been recognized that pharmaceutical compounds having phosphodiesterase (PDE)-inhibiting properties, such as roflumilast, are useful for treating psoriasis and atopic dermatitis ('298 patent, col 11 lines 52-61) and other chronic inflammatory and allergen-induced dermatoses. For treatment of such dermatoses, roflumilast emulsions, suspensions, gels or solutions for topical application have been described ('298 patent, col 12, lines 37-64). […] This low aqueous solubility has been problematic for the development of parenteral preparations and topical emulsions, suspensions, gels or solutions containing water. In U.S. Pat. No. 9,205,044 (incorporated herein by reference), the poor water solubility of roflumilast was overcome by using an alkoxylated fat, specifically polyoxyethylated 12-hydroxystearic acid, as a co-solvent for parenteral administration."}, "[3]": {"experimental": "as §1, with “0.0205” for “0.0061”, “DEGEE (Transcutol P,” for “PG (propylene glycol, Spectrum Chemical”, “146063, Gattefosse)” for “IEC0004)”, “DEGEE,” for “PG,”\n0.0111 grams of roflumilast (Batch A14367P from Interquim S.A.) was weighed into a liquid scintillation vial. An equimolar blend of DEGEE (Transcutol P, lot 146063, Gattefosse) and distilled water was prepared and added dropwise with mixing to the vial containing roflumilast. An equimolar blend is 88.3% DEGEE and 11.7% water on a weight/weight percent basis. After mixing each addition of equimolar DEGEE:Water, the tightly capped vial was returned to a water bath set at 25° C.", "remark": "listed apart in the source"}}}
{"smiles": "O=C(Nc1c(Cl)cncc1Cl)c1ccc(OC(F)F)c(OCC2CC2)c1", "note": "[roflumilast, N-(3,5-dichloropyrid-4-yl)-3-cyclopropylmethoxy-4-difluoromethoxybenzamid-e]", "values": [{"measurement": "calculated ideal solubility in equimolar PG:Water", "setting": "[1]", "value": 0.0040, "unit": "w/w %"}, {"measurement": "observed saturation solubility greater than calculated ideal solubility in equimolar PG:Water", "setting": "[1]", "value": 15, "unit": "fold"}, {"measurement": "observed saturation solubility in PG", "setting": "[1]", "value": 0.3, "unit": "w/w %"}, {"measurement": "observed saturation solubility in equimolar PG:Water", "setting": "[1]", "value": 0.06, "unit": "w/w %"}, {"measurement": "saturation solubility of roflumilast in water", "setting": "[2]", "value": 0.000053, "unit": "w/w %"}, {"measurement": "calculated ideal solubility in equimolar DEGEE:Water", "setting": "[3]", "value": 0.019, "unit": "w/w %"}, {"measurement": "observed saturation solubility greater than calculated ideal solubility in equimolar DEGEE:Water", "setting": "[3]", "value": 232, "unit": "fold"}, {"measurement": "observed saturation solubility in DEGEE", "setting": "[3]", "value": 7.1, "unit": "w/w %"}, {"measurement": "observed saturation solubility in equimolar DEGEE:Water", "setting": "[3]", "value": 4.4, "unit": "w/w %"}]}
